Data taken from article PMC6433934, “Preclinical Evaluation of Bispecific Adaptor Molecule Controlled Folate Receptor CAR-T Cell Therapy With Special Focus on Pediatric Malignancies” (Frontiers in Oncology, 2019).

Key:
[1] = tested on: HOS-143b; assay: Kinetics of specific lysis at varying E/T ratios, 10 nM EC17; type: cell-based, human; settings: 10 nM EC17, E2-CAR-T cells, E/T 1:27 to 3:1, 16 and 48 h
Procedure: For an EC17 dose response study, FR+ cancer cell lines (KB, MDA-MB-231, HOS-FRα, THP1-FRβ, OV90) were co-cultured with EGFRt-sorted E2-CAR-T cells at an effector-to-target (E/T) ratio of 1:1 in the presence of EC17 ranging from 0.1 pM to 100 μM in 10-fold increments. After 24 h of co-culture, supernatants were harvested to determine target cell killing by Promega's CytoTox 96® LDH assay kit and expressed as specific lysis (%) normalized to basal levels in the absence of EC17. To study the kinetics of T cell activation and FR correlation in vitro, co-cultures were carried out in FR+/- cell lines at varying E/T ratios (1:27, 1:9, 1:3, 1:1, 3:1) in the continuous presence of 10 nM EC17. The kinetics of target cell killing (i.e., % specific lysis) were quantified after 16 and 48 h of co-culture and normalized to basal levels in the absence of EC17 at defined E/T ratios. Meanwhile, a portion of the supernatants was taken after 44 h of co-culture for measurement of IFNγ, IL-2, and TNFα. The LEGENDplex™ human Th1 cytokine panel (BioLegend, San Diego, CA) was used to determine CAR-T cell derived cytokines.

[2] = tested on: HOS-FRα tumors; assay: Osteosarcoma study, subcutaneous xenografts, EC17 dose escalation; type: in vivo
Procedure: (§1) All animal care and use were performed according to NIH guidelines and in compliance with protocols approved by the Purdue University Animal Use and Care Committee. Female 4 to 5-weeks-old NOD/SCID gamma (NSG™) mice (stock number: 005557) were purchased from The Jackson Laboratory (Bar Harbor, ME). Unless specifically indicated, all animals were maintained on a FA-deficient diet (TestDiet, St. Louis, MO) upon arrival and throughout the study. To establish subcutaneous xenografts, MDA-MB-231 and HOS-FRα were implanted in the right flank region at 2.5 × 10^6 and 1 × 10^6 cells per animal, respectively. For intravenous xenografts, THP1-FRβ cells were inoculated at 5 × 10^6 cells per animal. Subcutaneous tumors were measured 2–3 times per week with a caliper and calculated using the ellipsoidal formula (length x width^2)/2. […] All animal doses (CAR-T cells, EC17, sodium fluorescein) were given intravenously.
For osteosarcoma study, two cohorts of mice were subcutaneously implanted with HOS-FRα tumor cells 3 days prior to receiving ~6 million of the same CAR-T cell preparation used in the THP1-FRβ study. At ~3.5 days post CAR-T cell infusion, one cohort of mice was given up to 3 cycles of EC17 at 5/10/100 nmol/kg in Cycle 1, 5/30/300 nmol/kg in Cycle 2, and 5/50/500 nmol/kg in Cycle 3, all following the Monday/Thursday/Monday regimen with a 6 day break in-between cycles. At the end of study, circulating CD3ε+ EGFRt+ CAR-T cells per 100 μL of mouse blood were enumerated. HOS-FRα tumors (+/- EC17 treatment) were also harvested and digested for flow cytometric analysis of tumor-infiltrating CAR-T cells.
Depending on the CAR-T cell dose and how EC17 is administered, tumor-bearing mice receiving FITC-specific CAR-T cells can experience severe CRS and varying degrees of body weight loss ([27], [33], [34]). Therefore, we developed a CRS grading system (0–5 scale) to empirically assess CRS toxicity from animals' gross morphology and social behavior to allow for better timing of CRS rescue. While grades 0 and 5 indicated normal (no CRS) or death (due to severe CRS), respectively, grades 1, 2, and 3–4 were considered mild, light-to-moderate, and severe CRS. In addition, all EC17 doses were intentionally given toward the end of any given day to allow potential CRS symptoms to develop overnight. On the days immediately following each EC17 dose, animals were scored and rescue agents such as sodium fluorescein, folic acid and leucovorin were used to mitigate CRS toxicity ([33]). In this particular instance, a batch of E2-CAR-T cells with a high EGFRt+ CD4/CD8 ratio (~93:7) was given to HOS-FRα tumor-bearing mice at a mixture of ~2.5 million CD8 and ~33 million CD4 on day 0. […]

[3] = tested on: MDA-MB-231 tumors; assay: Effect of dietary folate on CRS and antitumor activity; type: in vivo, NSG mice
Procedure: as §1
For MDA-MB-231 studies, mice received a high dose (~10 million) of a “clinical facsimile” of E2-CAR-T cells (~39% EGFRt+) with a low differentiation profile. Two days later, we started them with 3 different treatment regimens of EC17 at an average tumor size of ~293 ± 39 mm^3. The EC17 dosing was given once-a-week (SIW) at 500 nmol/kg on Mondays, or as escalating doses of 5, 50, or 100, and 500 or 1,000 nmol/kg on Monday, Thursday, and Monday with a 6 day break in-between cycles. Control mice were left untreated (received CAR-T cells but no EC17). For comparison, a cohort of tumor-free littermates also received the same number of CAR-T cells without or with EC17 SIW at 500 nmol/kg. To study the effect of high dietary folate, two sets of NSG mice were placed on either a FA-replete diet (4 mg/kg, Envigo, Indianapolis, IN) or a FA-deficient diet (TestDiet, St. Louis, MO) upon arrival. On day 0, both sets of the mice received ~10 million of the same “clinical facsimile” CAR-T cells followed by no EC17 or EC17 SIW at 500 nmol/kg starting on day 3. On the first day of EC17 administration, MDA-MB-231 tumors size averaged around ~549 ± 184 mm^3 (280–918 mm^3) in FA-replete mice, and ~559 ± 165 mm^3 (356–961 mm^3) in FA-deficient mice.
Depending on the CAR-T cell dose and how EC17 is administered, tumor-bearing mice receiving FITC-specific CAR-T cells can experience severe CRS and varying degrees of body weight loss ([27], [33], [34]). Therefore, we developed a CRS grading system (0–5 scale) to empirically assess CRS toxicity from animals' gross morphology and social behavior to allow for better timing of CRS rescue. While grades 0 and 5 indicated normal (no CRS) or death (due to severe CRS), respectively, grades 1, 2, and 3–4 were considered mild, light-to-moderate, and severe CRS. In addition, all EC17 doses were intentionally given toward the end of any given day to allow potential CRS symptoms to develop overnight. On the days immediately following each EC17 dose, animals were scored and rescue agents such as sodium fluorescein, folic acid and leucovorin were used to mitigate CRS toxicity ([33]). In this particular instance, a batch of E2-CAR-T cells with a high EGFRt+ CD4/CD8 ratio (~93:7) was given to HOS-FRα tumor-bearing mice at a mixture of ~2.5 million CD8 and ~33 million CD4 on day 0. When EC17 was dosed, respectively, at 500, 100, and 500 nmol/kg on days 3, 10, and 12, low CRS (grades 1–2) was noted on days 4 and 11 but high CRS (grade 3) was noted on day 13. To mitigate the severe CRS toxicity, sodium fluorescein was intravenously administrated at ~96 mg/kg in the morning of day 13 and mouse plasma samples were collected 6 h later for analysis of CRS-associated cytokines.

[4] = FA-deficient diet, ~10 million E2-CAR-T cells, subsequent EC17 doses SIW 500 nmol/kg
[5] = FA-replete diet, EC17 SIW 500 nmol/kg, ~10 million E2-CAR-T cells, n = 5

For `Nc1nc2ncc(CNc3ccc(C(=O)NC(CCC(=O)NCCNC(=S)Nc4ccc(-c5c6ccc(=O)cc-6oc6cc(O)ccc56)c(C(=O)O)c4)C(=O)O)cc3)nc2c(=O)[nH]1` (centres unmarked) [EC17, FA-(γ)-ethylenediamine-FITC], the “specific lysis of FR-negative cells” value [1] was “essentially unharmed”, the “safety (CRS, body weight)” value ([2]; EC17 M/Th/M escalation 5/10/100, 5/30/300, 5/50/500 nmol/kg, ~6 million E2-CAR-T cells) was “no CRS or body weight loss” and the tumor growth ([2]; EC17 M/Th/M escalation, within the first two cycles, ~6 million E2-CAR-T cells) was “significant delay in tumor growth”. For the same compound, the cures ([2]; HOS-FRα xenografts, EC17 plus E2-CAR-T cells) was “no cures”, the “intratumoral CD3ε+ EGFRt+ CAR-T cell population” value ([2]; day 33, EC17-treated animals) was ~ 1 % total viable digested tumor-derived cells and the cures ([3]; FA-deficient diet, EC17 SIW 500 nmol/kg, ~10 million E2-CAR-T cells, n = 5) was 5/5. The “CD3ε+ EGFRt+ CAR-T cells in blood” value ([3]; FA-deficient diet, day 52, EC17 SIW 500 nmol/kg) was 1.6–20.4 × 10^4 per 100 μL blood, the CRS grade [3, 4] was 2–3 and the body weight loss [3, 4] was at most 11.4%. For the same compound, the complete responses [3, 5] was 2/5, the cures [3, 5] was 2/5 and the partial response [3, 5] was 1/5. The “CD3ε+ EGFRt+ CAR-T cells in blood” value ([3]; FA-replete diet, day 59, EC17 SIW 500 nmol/kg) was 0.027–4.3 × 10^3 per 100 μL blood and the CRS symptoms ([3]; FA-replete diet, ~10 million E2-CAR-T cells, EC17 SIW 500 nmol/kg) was “did not show symptoms of CRS”.
